{"source": "paper PMC8765048", "about": "(JCI Insight, 2022)", "key": {"[1]": {"tested_on": "SARS-CoV-2 P.1 (Gamma)", "experiment": "microbe, parasite or virus in culture", "format": "cell-based"}, "[2]": {"tested_on": "SARS-CoV-2 P.2 (Zeta)", "experiment": "microbe, parasite or virus in culture", "format": "cell-based"}, "[3]": {"tested_on": "SARS-CoV-2 B.1.429 (Epsilon)", "experiment": "microbe, parasite or virus in culture", "format": "cell-based"}, "[4]": {"tested_on": "SARS-CoV-2 B.1.351 (Beta)", "experiment": "microbe, parasite or virus in culture", "format": "cell-based"}, "[5]": {"tested_on": "SARS-CoV-2 P.1 (Gamma)", "experiment": "microbe, parasite or virus in culture", "format": "cell-based", "remark": "listed apart in the source"}, "[6]": {"tested_on": "SARS-CoV-2 B.1.617.2 (Delta)", "experiment": "microbe, parasite or virus in culture", "format": "cell-based"}, "[7]": {"tested_on": "SARS-CoV-2 B.1.427 (Epsilon)", "experiment": "microbe, parasite or virus in culture", "format": "cell-based"}, "[8]": {"tested_on": "SARS-CoV-2 WA1", "experiment": "microbe, parasite or virus in culture", "format": "cell-based", "conditions": "Severe acute respiratory syndrome coronavirus 2, Caco-2, 96 h"}, "[9]": {"experiment": "CellTiter-Glo cell viability assay", "format": "cell-based", "conditions": "human, HEK293T cells"}, "[10]": {"experiment": "CellTiter-Glo cell viability assay", "format": "cell-based", "conditions": "human, HepG2 cells; HepG2, 72 h"}, "[11]": {"experiment": "CellTiter-Glo cell viability assay, average of 8 cell types", "format": "cell-based", "conditions": "human (7 cell types) and grivet (Vero E6), average ± SEM, n = 8 cell types"}, "[12]": {"tested_on": "multiple cell types", "experiment": "CellTiter-Glo cell viability assay, average of 8 cell types", "format": "cell-based", "conditions": "average ± SEM, n = 8 cell types"}, "[13]": {"tested_on": "Huh-7 cells", "experiment": "Acute mitochondrial or glycolytic stress assay (Seahorse XF96e)", "format": "cell-based, human", "from_the_text": "Other important measures of cell viability are mitochondrial integrity, function, cardiotoxicity, and genotoxicity, since other nucleoside analogs may vary in their effect on these endpoints ([29], [30]). Dyes commonly used to assess mitochondrial integrity are MitoTracker Green (MTG), a mitochondrial stain mostly localized to mitochondria based on hydrophobicity, and N-alkyl acridine orange (NAO), which binds to mitochondrial cardiolipin. Untreated Huh-7 cells and Huh-7 cells treated for 5 days with 100 nM sangivamycin were stained with MTG and NAO and imaged by fluorescence microscopy. […] To more quantitatively assess the impact of sangivamycin on mitochondrial integrity, we evaluated the effect of sangivamycin on mitochondrial metabolic function as well as cytoplasmic glycolytic function. The XF96e Seahorse instrument was used to quantify the oxygen consumption rate (OCR) over time in untreated control and sangivamycin-treated Huh-7 cells. […] Standard metabolic endpoints quantified with or without sangivamycin included sequential treatment and washout of cell cultures with oligomycin (ATP synthase inhibitor), carbonyl cyanide 4-(trifluoromethoxy)phenylhydrazone (FCCP; a proton gradient uncoupler), and antimycin A + rotenone (complex I and III blockers) (Supplemental Figure 7). […]"}, "[14]": {"biological_target": "T1, KCNH2 (hERG) (Homo sapiens, UniProt Q12809)", "T1 construct": "expressed in transfected cells; host or cells: HEK293T", "T1 sequence (Q12809 whole entry)": "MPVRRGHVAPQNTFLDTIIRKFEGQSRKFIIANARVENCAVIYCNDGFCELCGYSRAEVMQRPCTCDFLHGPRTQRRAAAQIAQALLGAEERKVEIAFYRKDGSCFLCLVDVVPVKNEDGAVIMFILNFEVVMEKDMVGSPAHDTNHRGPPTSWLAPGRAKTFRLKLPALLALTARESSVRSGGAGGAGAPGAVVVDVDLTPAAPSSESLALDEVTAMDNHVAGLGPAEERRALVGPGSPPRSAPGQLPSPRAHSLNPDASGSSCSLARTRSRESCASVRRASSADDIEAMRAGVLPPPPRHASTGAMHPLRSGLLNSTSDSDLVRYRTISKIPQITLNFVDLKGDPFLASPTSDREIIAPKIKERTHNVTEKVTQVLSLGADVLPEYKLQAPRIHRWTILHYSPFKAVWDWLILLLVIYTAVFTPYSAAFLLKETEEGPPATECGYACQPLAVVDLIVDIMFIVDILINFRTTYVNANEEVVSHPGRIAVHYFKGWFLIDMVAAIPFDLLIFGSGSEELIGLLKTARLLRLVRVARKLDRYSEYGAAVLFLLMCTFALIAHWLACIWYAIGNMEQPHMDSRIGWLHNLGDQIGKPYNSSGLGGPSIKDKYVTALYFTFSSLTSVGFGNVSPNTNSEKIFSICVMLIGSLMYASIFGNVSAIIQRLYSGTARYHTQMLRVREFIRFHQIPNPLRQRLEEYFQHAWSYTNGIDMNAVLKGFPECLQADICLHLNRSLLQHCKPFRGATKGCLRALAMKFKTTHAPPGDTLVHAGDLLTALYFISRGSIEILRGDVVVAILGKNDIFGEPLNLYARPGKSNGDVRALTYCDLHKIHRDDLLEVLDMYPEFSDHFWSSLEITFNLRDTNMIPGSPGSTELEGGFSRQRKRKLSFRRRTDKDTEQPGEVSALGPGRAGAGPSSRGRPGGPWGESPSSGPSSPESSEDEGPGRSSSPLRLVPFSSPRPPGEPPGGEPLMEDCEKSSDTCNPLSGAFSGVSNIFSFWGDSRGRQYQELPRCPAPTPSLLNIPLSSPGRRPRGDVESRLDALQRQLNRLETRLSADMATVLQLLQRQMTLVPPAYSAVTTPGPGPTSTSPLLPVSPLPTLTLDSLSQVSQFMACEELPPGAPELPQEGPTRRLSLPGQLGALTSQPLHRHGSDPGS", "experiment": "Potassium channel inhibition testing (QPatch HTX electrophysiology)", "format": "cell-based", "from_the_text": "The KCNH2 (hERG) functions as the α subunit of a cardiac potassium channel. Its inhibition by drugs has been implicated in fatal ventricular tachyarrhythmia ([31]). As a predictor of cardiotoxicity and genotoxicity, we therefore evaluated KCNH2 (hERG) inhibition and genotoxicity in the AMES mutagenicity assay.\nRuling out inhibition of KCNH2 (hERG) by a novel compound is a mandatory step in establishing drug safety. The effect of sangivamycin on KCNH2-derived cardiac potassium channels was assessed using HEK293T cells and the QPatch HTX electrophysiology platform (Evotech), following the manufacturer’s instructions. Sangivamycin was tested at 6 concentrations (cumulative concentration response, high test concentration of 10 μM). The percentage change in potassium channel tail current was used to calculate channel inhibition."}, "[15]": {"tested_on": "Huh-7 (human hepatocarcinoma)", "experiment": "CellTox Green Cytotoxicity Assay", "conditions": "ratio > 1 cytostatic, ≤ 1 cytotoxic"}, "[16]": {"conditions": "Severe acute respiratory syndrome coronavirus 2, Vero C1008, 24 h"}, "[17]": {"conditions": "Severe acute respiratory syndrome coronavirus 2, Vero C1008, 48 h"}, "[18]": {"conditions": "Severe acute respiratory syndrome coronavirus 2, Calu-3, 48 h"}, "[19]": {"conditions": "Severe acute respiratory syndrome coronavirus 2, Calu-3, 24 h"}}}
{"smiles": "NC(=O)c1cn([C@@H]2O[C@H](CO)[C@@H](O)[C@H]2O)c2ncnc(N)c12", "note": "[Sangivamycin, sangivamycin]", "values": [{"measurement": "SI (selectivity index, CC50/IC50)", "setting": "[1]; P.1 (Gamma), Vero E6 cells", "result": ">22.2"}, {"measurement": "IC50", "setting": "[1]; [16]", "result": 27.1, "unit": "nM"}, {"measurement": "IC90", "setting": "[1]; [16]", "result": 245, "unit": "nM"}, {"measurement": "SI (selectivity index, CC50/IC50)", "setting": "[2]; P.2 (Zeta), Vero E6 cells", "result": ">20.1"}, {"measurement": "IC50", "setting": "[2]; [16]", "result": 29.8, "unit": "nM"}, {"measurement": "IC90", "setting": "[2]; [16]", "result": 125, "unit": "nM"}, {"measurement": "SI (selectivity index, CC50/IC50)", "setting": "[3]; B.1.429 (Epsilon), Vero E6 cells", "result": ">8.2"}, {"measurement": "IC50", "setting": "[3]; [17]", "result": 72.8, "unit": "nM"}, {"measurement": "IC90", "setting": "[3]; [17]", "result": 465, "unit": "nM"}, {"measurement": "SI (selectivity index, CC50/IC50)", "setting": "[4]; B.1.351 (Beta), Calu-3 cells", "result": ">10.1"}, {"measurement": "IC50", "setting": "[4]; [18]", "result": 59.4, "unit": "nM"}, {"measurement": "IC90", "setting": "[4]; [18]", "result": 135, "unit": "nM"}, {"measurement": "SI (selectivity index, CC50/IC50)", "setting": "[5]; P.1 (Gamma), Calu-3 cells", "result": ">9.5"}, {"measurement": "IC50", "setting": "[5]; [19]", "result": 63.3, "unit": "nM"}, {"measurement": "IC90", "setting": "[5]; [19]", "result": 204, "unit": "nM"}, {"measurement": "SI (selectivity index, CC50/IC50)", "setting": "[6]; B.1.617.2 (Delta), Calu-3 cells", "result": ">7.6"}, {"measurement": "IC50", "setting": "[6]; [19]", "result": 79, "unit": "nM"}, {"measurement": "IC90", "setting": "[6]; [19]", "result": 290, "unit": "nM"}, {"measurement": "SI (selectivity index, CC50/IC50)", "setting": "[7]; B.1.427 (Epsilon), Calu-3 cells", "result": ">7.3"}, {"measurement": "IC50", "setting": "[7]; [19]", "result": 82.2, "unit": "nM"}, {"measurement": "IC90", "setting": "[7]; [19]", "result": 341, "unit": "nM"}, {"measurement": "IC50", "setting": "[8]", "result": "14 ± 2", "unit": "nM"}, {"measurement": "IC90", "setting": "[8]", "result": "63 ± 17", "unit": "nM"}, {"measurement": "CC50 at 72 h", "setting": "[9]", "result": 885, "unit": "nM"}, {"measurement": "CC50 at 72 h", "setting": "[10]", "result": 1770, "unit": "nM"}, {"measurement": "CC50", "setting": "[11]", "result": "617 ± 181", "unit": "nM"}, {"measurement": "CC50", "setting": "[12]", "result": "607 ± 182", "unit": "nM"}, {"measurement": "Acute effects on mitochondrial and glycolytic stress (Seahorse measurements)", "setting": "[13]; 0.05–5 μM", "result": ">5", "unit": "µM"}, {"measurement": "oxygen consumption rate (OCR) relative to untreated control cells", "setting": "[13]; up to 5 μM", "result": "did not significantly change the OCR"}, {"measurement": "IC50", "setting": "[14]", "result": "> 10000", "unit": "nM"}, {"measurement": "effect on the KCNH2 (hERG)", "setting": "[14]; 10 μM", "result": "had no effect"}, {"measurement": "Ratio CellTox Green/CellTiter-Glo", "setting": "[15]", "result": ">10.3"}]}
